Assay results taken from PubChem BioAssay (NCI).
Several values for one entry are separate records, joined by “and”; a condition that tells them apart may be missing. Equal entries are not always repeated.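 1) Cells in 96-well plates. 2) Compound, 48 h, 5 concentrations. 3) Linear interpolation between surrounding doses. 4) Unreached endpoint = highest concentration. Here, GI50 denotes the concentration required for 50% inhibition of growth. TGI denotes the concentration required for complete inhibition of growth.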

How the values were obtained:
Experiment in all cases: NCI tumour cell line growth inhibition, 48 h
CAKI-1 renal = system: CAKI-1 renal
MCF7 breast = system: MCF7 breast
UACC-257 melanoma = system: UACC-257 melanoma
M19-MEL melanoma = system: M19-MEL melanoma
DLD-1 colon = system: DLD-1 colon
SN12K1 renal = system: SN12K1 renal
KM12 colon = system: KM12 colon
NCI-H522 lung = system: NCI-H522 lung
XF 498 CNS = system: XF 498 CNS
HL-60(TB) leukemia = system: HL-60(TB) leukemia
SNB-78 CNS = system: SNB-78 CNS
RXF 393 renal = system: RXF 393 renal
RPMI-8226 leukemia = system: RPMI-8226 leukemia
UO-31 renal = system: UO-31 renal
CCRF-CEM leukemia = system: CCRF-CEM leukemia
SF-295 CNS = system: SF-295 CNS
MOLT-4 leukemia = system: MOLT-4 leukemia
SK-OV-3 ovarian = system: SK-OV-3 ovarian
LOX IMVI melanoma = system: LOX IMVI melanoma
SK-MEL-28 melanoma = system: SK-MEL-28 melanoma
SNB-75 CNS = system: SNB-75 CNS
SNB-19 CNS = system: SNB-19 CNS
COLO 205 colon = system: COLO 205 colon
A549 NSCLC = system: A549 NSCLC
NCI-H460 lung = system: NCI-H460 lung
OVCAR-5 ovarian = system: OVCAR-5 ovarian
EKVX NSCLC = system: EKVX NSCLC
HCT-116 colon = system: HCT-116 colon
OVCAR-4 ovarian = system: OVCAR-4 ovarian
SF-539 CNS = system: SF-539 CNS
SK-MEL-5 melanoma = system: SK-MEL-5 melanoma
NCI-H23 lung = system: NCI-H23 lung
K-562 leukemia = system: K-562 leukemia
SK-MEL-2 melanoma = system: SK-MEL-2 melanoma
NCI/ADR-RES ovarian = system: NCI/ADR-RES ovarian
HOP-18 NSCLC = system: HOP-18 NSCLC
SN12C renal = system: SN12C renal
OVCAR-8 ovarian = system: OVCAR-8 ovarian
HCT-15 colon = system: HCT-15 colon
SW-620 colon = system: SW-620 colon
HT29 colon = system: HT29 colon
IGROV1 ovarian = system: IGROV1 ovarian
MALME-3M melanoma = system: MALME-3M melanoma
SF-268 CNS = system: SF-268 CNS
HCC-2998 colon = system: HCC-2998 colon
HOP-92 NSCLC = system: HOP-92 NSCLC
DMS 114 small cell lung = system: DMS 114 small cell lung
HOP-62 NSCLC = system: HOP-62 NSCLC
UACC-62 melanoma = system: UACC-62 melanoma
KM20L2 colon = system: KM20L2 colon
OVCAR-3 ovarian = system: OVCAR-3 ovarian
U251 CNS = system: U251 CNS
A498 renal = system: A498 renal
DMS 273 small cell lung = system: DMS 273 small cell lung
P388 leukemia = system: P388 leukemia
NCI-H226 lung = system: NCI-H226 lung
P388/ADR leukemia = system: P388/ADR leukemia

## COc1ccc2[nH]cc(/C=C(/C)c3ccncc3)c2c1
CAKI-1 renal
  TGI: > 100 µM
MCF7 breast
  GI50: 996 nM
  TGI: > 100 µM
UACC-257 melanoma
  GI50: 8.36 µM
  TGI: 32.8 µM and 26.4 µM
M19-MEL melanoma
  GI50: 6.77 µM
  TGI: 32 µM and 21.5 µM
DLD-1 colon
  GI50: 4 µM
  TGI: > 100 µM
SN12K1 renal
  GI50: 5.6 µM
  TGI: 27.6 µM and > 100 µM
KM12 colon
  GI50: 796 nM
  TGI: > 100 µM
NCI-H522 lung
  GI50: 3.99 µM
  TGI: 21.9 µM and 7.16 µM
XF 498 CNS
  GI50: 4.3 µM
  TGI: 27.8 µM and 44.5 µM
HL-60(TB) leukemia
  TGI: 3.93 µM
SNB-78 CNS
  GI50: 9.43 µM
  TGI: > 100 µM
RXF 393 renal
  GI50: 2740 nM
  TGI: 10.3 µM
RPMI-8226 leukemia
  GI50: 2700 nM
  TGI: 16.5 µM and > 100 µM
UO-31 renal
  GI50: 3.85 µM
  TGI: 28.4 µM and 96.4 µM
CCRF-CEM leukemia
  TGI: > 100 µM
SF-295 CNS
  GI50: 3.63 µM
  TGI: 12.1 µM and 32.8 µM
MOLT-4 leukemia
  GI50: 2680 nM
  TGI: 47.9 µM and > 100 µM
SK-OV-3 ovarian
  TGI: 35.6 µM
LOX IMVI melanoma
  TGI: 28.8 µM and 18.9 µM
SK-MEL-28 melanoma
  GI50: 9.02 µM
  TGI: > 100 µM
SNB-75 CNS
  GI50: 4.93 µM
  TGI: 29.5 µM and 7.19 µM
SNB-19 CNS
  GI50: 15.5 µM
  TGI: > 100 µM
COLO 205 colon
  TGI: 16.4 µM and 13.9 µM
A549 NSCLC
  GI50: 5.48 µM
  TGI: > 100 µM
NCI-H460 lung
  TGI: 12.5 µM and 22.4 µM
OVCAR-5 ovarian
  GI50: 11.6 µM
  TGI: 41.5 µM and > 100 µM
EKVX NSCLC
  TGI: > 100 µM
HCT-116 colon
  GI50: 3.67 µM
  TGI: 16.8 µM and 20.5 µM
OVCAR-4 ovarian
  GI50: 17.9 µM
  TGI: > 100 µM
SF-539 CNS
  GI50: 4.46 µM
  TGI: 19.9 µM and > 100 µM
SK-MEL-5 melanoma
  TGI: 9.24 µM
NCI-H23 lung
  GI50: 7.07 µM
K-562 leukemia
  TGI: > 100 µM
SK-MEL-2 melanoma
  GI50: 58.1 µM
  TGI: > 100 µM and 55.9 µM
NCI/ADR-RES ovarian
  GI50: 2110 nM
HOP-18 NSCLC
  TGI: > 100 µM
SN12C renal
  GI50: 7.58 µM
  TGI: > 100 µM
OVCAR-8 ovarian
  GI50: 7.76 µM
  TGI: > 100 µM
HCT-15 colon
  GI50: 551 nM
  TGI: 18.7 µM and 14 µM
SW-620 colon
  TGI: 27.2 µM and > 100 µM
HT29 colon
  GI50: 3.64 µM
  TGI: 13.1 µM and 10.9 µM
IGROV1 ovarian
  TGI: > 100 µM
MALME-3M melanoma
  GI50: 3.14 µM
  TGI: 21.9 µM
SF-268 CNS
  TGI: > 100 µM
HCC-2998 colon
  TGI: 95.3 µM
HOP-92 NSCLC
  GI50: 13.3 µM
  TGI: > 100 µM and 52.6 µM
DMS 114 small cell lung
  GI50: 2230 nM
  TGI: 7.19 µM and 6.35 µM
HOP-62 NSCLC
  TGI: 53.8 µM
UACC-62 melanoma
  TGI: 29.8 µM and 52.9 µM
KM20L2 colon
  GI50: 2960 nM
  TGI: 8.67 µM
OVCAR-3 ovarian
  GI50: 4.16 µM
  TGI: > 100 µM
U251 CNS
  GI50: 3.24 µM
  TGI: 11 µM and 67.9 µM
A498 renal
  TGI: 42.5 µM
DMS 273 small cell lung
  GI50: 2370 nM
  TGI: 19.6 µM and 10.5 µM
P388 leukemia
  TGI: 9.68 µM
NCI-H226 lung
  GI50: 7.63 µM
  TGI: 38.6 µM and > 100 µM
P388/ADR leukemia
  TGI: 22.6 µM
